Source: EP4585216A1, “HETEROCYCLIC COMPOUNDS FOR THE TREATMENT OF FATTY LIVER DISEASE” (ScandiEdge Therapeutics AB, priority 2024, dated 2025)

What was measured:
pyruvate kinase (PK) [1] = assay: Pyruvate kinase activity in treated HepG2 WT cells; assay type: cell-based; conditions: 10 µM for 4 h; for effect on PK activity in HepG2 WT cells (in words): compared to the control
Method: (§1) HepG2 WT and HepG2 KO cells were lysed, and protein lysate was prepared with CelLytic M (C2978, Sigma-Aldrich) lysis buffer. Protein lysate was treated with 10 µM of the drugs and the pyruvate kinase activity on protein lysate was measured using Pyruvate Kinase Assay Kit (ab83432, abeam) following manufacturer's instruction. 2×10^4 HepG2 WT cells and 1×10^5 HepG2 KO cells were seeded into a 96-well plate for measuring pyruvate kinase activity in the cells. The cells were treated with 10-20µM of drugs for 4h and washed with 250µl PBS. Cells were lysed with 50 µl PK assay buffer (ab83432, abcam) and start reaction and kinetic O.D measurement was performed on 50µl PK assay buffer containing the assay component (ab83432, abcam). O.D values were measured with microplate reader (Hidex Sense Beta Plus) at 570nm wavelength. DMSO was used as control.
(§2) The effect of the target compounds was studied on liver cell line HepG2. HepG2 expresses two different pyruvate kinases (PK), pyruvate kinase muscle (PKM2) and pyruvate kinase liver (PKL). While most cells express PKM, liver cells further express PKL. […] In addition to HepG2 KO cell, HepG2 wild-type (HepG2 WT) cells were also used.

[2] = molecular target: T1, pyruvate kinase liver (PKL) (Homo sapiens, UniProt P30613); assay: Pyruvate kinase activity in treated HepG2 PKM2 CRISPR KO cells; assay type: cell-based; conditions: 10 µM for 4 h; for effect on PK activity in HepG2 KO cells (in words): compared to the control
T1 construct: endogenous in cells; host or cells: HepG2 PKM2 CRISPR KO (HepG2 KO) cells; lysate in CelLytic M or treated whole cells
Method: as §1, §2

pyruvate kinase (PK) [3] = assay: Pyruvate kinase activity in HepG2 WT protein lysate; assay type: biochemical; conditions: 10 µM; for reduction in PK activity of HepG2 WT protein lysate: compared to the control (DMSO); for PK activity of HepG2 WT protein lysate (in words): batches 4 and 5
Method: as §1, §2

[4] = molecular target: T1, pyruvate kinase liver (PKL); assay: Pyruvate kinase activity in HepG2 PKM2 CRISPR KO protein lysate; assay type: biochemical; conditions: for inhibition at 10 µM / reduction in PK activity of HepG2 KO protein lysate: compared to the control (DMSO); for inhibition at 10 µM: read-out: reduction in PK activity of HepG2 KO protein lysate; for reduction in PK activity of HepG2 KO protein lysate / PK activity of HepG2 KO protein lysate (in words): 10 µM; for PK activity of HepG2 KO protein lysate (in words): batches 4 and 5
Method: as §1, §2

HepG2 cells = assay: TAG measurement in DNL steatosis model; assay type: cell-based; conditions: for reduction in TAG/MTT ratio / TAG content (in words): 10 µM for 1 week; for reduction in TAG/MTT ratio: compared to the control (DMSO)
Method: HepG2 wild type cells were purchased from genome engineering company Synthego. Cells were maintained with growth media RPMI 1640 (R2405, Sigma-Aldrich) and supplemented with 10 % fetal bovine serum (FBS, F7524, Sigma-Aldrich), 1 % penicillin-streptomycin (P/S media, P4333, Sigma-Aldrich). Steatosis induction media was prepared as DMEM high glucose (D0819, Sigma-Aldrich) with 10% FBS, 1% P/S media supplemented with 10µg/ml insulin (I9278, Sigma-Aldrich), and 10µM T0901317 (T2320, Sigma-Aldrich) for one week. HepG2 cells were seeded 6×10^4 cells per well into a 96-well plate for TAG and MTT assay after steatosis and 1×10^6 cells per well into 6-well plate for western blot analysis after steatosis. HepG2 cells were incubated with steatosis induce media (SM) for one week by 3 day + 2 day + 2 day with total three times media exchange.
HepG2 cells were seeded at 6×10^4 cells per well into 96-well plate and induced steatosis for one week with designated concentration of small molecules (this will be referred to as a DNL steatosis model). After steatosis induction, cells were washed with 200 µl of PBS and triglyceride contents was measured by Triglyceride Assay Kit - Quantification (ab65336, Abeam) following manufacturer's instruction. Optical density (O.D) values were detected with microplate reader at 570 nm (Hidex Sense Beta Plus).
5 mg/ml MTT (M2128, Sigma-Aldrich) solution in PBS (10 µL) was added to each well for MTT assay. After 1 hr, MTT solution and all media were removed from the wells. 100 µl of DMSO was added and mixed to dissolve the formazan crystals. Cell viability was analysed by measuring the absorbance of the dissolved formazan in a microplate reader at a wavelength of 570 nm with microplate reader (Hidex Sense Beta Plus). DMSO was used as control.

T1 sequence (P30613 1-543 isoform P30613-2): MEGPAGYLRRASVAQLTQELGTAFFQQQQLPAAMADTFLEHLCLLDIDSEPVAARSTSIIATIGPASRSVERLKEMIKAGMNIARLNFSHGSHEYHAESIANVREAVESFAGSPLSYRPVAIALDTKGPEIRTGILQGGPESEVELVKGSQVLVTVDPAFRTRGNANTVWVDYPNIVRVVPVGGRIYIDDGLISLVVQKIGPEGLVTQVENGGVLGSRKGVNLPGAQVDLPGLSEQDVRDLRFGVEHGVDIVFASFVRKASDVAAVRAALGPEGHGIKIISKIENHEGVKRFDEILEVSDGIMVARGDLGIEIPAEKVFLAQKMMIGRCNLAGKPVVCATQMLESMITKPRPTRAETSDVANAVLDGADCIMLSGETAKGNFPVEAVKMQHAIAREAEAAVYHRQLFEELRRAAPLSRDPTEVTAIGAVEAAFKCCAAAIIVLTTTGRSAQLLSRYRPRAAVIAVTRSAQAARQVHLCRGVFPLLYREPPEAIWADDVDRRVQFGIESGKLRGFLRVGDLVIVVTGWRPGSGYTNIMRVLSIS

For COc1cc2c(cc1OC)N(Cc1ccccc1)S(=O)(=O)c1cc(OC)c(OC)cc1-2 [SET-08, 6-benzyl-2,3,8,9-tetramethoxy-6H-dibenzo[c,e][1,2]thiazine 5,5-dioxide], the “effect on PK activity in HepG2 WT cells (in words)” value (pyruvate kinase (PK) [1]) was “did not affect the PK activity” and the “effect on PK activity in HepG2 KO cells (in words)” value [2] was “did not affect the PK activity”.
O=S1(=O)c2cc(O)c(O)cc2-c2cc(O)c(O)cc2N1Cc1ccccc1 [SET-09, 6-benzyl-2,3,8,9-tetrahydroxy-6H-dibenzo[c,e][1,2]thiazine 5,5-dioxide] was tested, and the “reduction in PK activity of HepG2 WT protein lysate” value (pyruvate kinase (PK) [3]) was 42.6%, the inhibition at 10 µM [4] was 70.2% and the “reduction in TAG/MTT ratio” value (HepG2 cells) was 21.3%.
With O=S1(=O)Nc2cc(O)c(O)cc2-c2cc(O)c(O)cc21 [SET-10, 2,3,8,9-tetrahydroxy-6H-dibenzo[c,e][1,2]thiazine 5,5-dioxidee] the “reduction in PK activity of HepG2 WT protein lysate” value (pyruvate kinase (PK) [3]) was 28.7%, the inhibition at 10 µM [4] was 29.4% and the “effect on PK activity in HepG2 WT cells (in words)” value (pyruvate kinase (PK) [1]) was “did not affect the PK activity”. The “effect on PK activity in HepG2 KO cells (in words)” value [2] was “did not affect the PK activity”.
O=S(=O)(NCc1ccc(F)cc1)c1cc(O)c(O)cc1-c1ccc(O)c(O)c1 [SET-13, N-(4-fluorobenzyl)-3',4,4',5-tetrahydroxy-[1,1'-biphenyl]-2-sulfonamide] was tested, and the “reduction in PK activity of HepG2 WT protein lysate” value (pyruvate kinase (PK) [3]) was 15.8%, the inhibition at 10 µM [4] was 70.2% and the “reduction in TAG/MTT ratio” value (HepG2 cells) was 21.9%.
O=S(=O)(NCc1ccccc1)c1cc(O)c(O)cc1-c1ccc(O)c(O)c1 [SET-15, N-benzyl-3',4,4',5-tetrahydroxy-[1,1'-biphenyl]-2-sulfonamide] was tested, and the “reduction in PK activity of HepG2 WT protein lysate” value (pyruvate kinase (PK) [3]) was 25.4%, the inhibition at 10 µM [4] was 59.1% and the “reduction in TAG/MTT ratio” value (HepG2 cells) was 26.8%.
With COc1ccc(CN2c3cc(OC)c(OC)cc3-c3cc(OC)c(OC)cc3S2(=O)=O)cc1 [SET-18, 2,3,8,9-tetramethoxy-6-(4-methoxybenzyl)-6H-dibenzo[c,e][1,2] thiazine 5,5-dioxide] the “inhibition of PK activity in HepG2 WT cells” value (pyruvate kinase (PK) [1]) was 6.2% and the inhibition at 10 µM ([2]; HepG2, read-out: inhibition of PK activity in HepG2 KO cells) was 7.5%.
For COc1cc(-c2ccc(C(F)(F)F)cc2)c(S(=O)(=O)NCc2ccccc2)cc1OC [SET-26, N-benzyl-4,5-dimethoxy-4'-(trifluoromethyl)-[1,1'-biphenyl]-2-sulfonamide], the inhibition at 10 µM [4] was 8%.
Work on COc1cc(Br)c(S(=O)(=O)NCc2cn(CC(=O)c3ccccc3)nn2)cc1OC [SET-27A, 2-bromo-4,5-dimethoxy-N-((1-(2-xox-2-phenylethyl)-1H-1,2,3-triazol-4-yl)methyl) benzenesulfonamide] yielded an inhibition at 10 µM [4] of 4.3%.
With COc1cc(Br)c(S(=O)(=O)NCc2cn(Cc3ccccc3)nn2)cc1OC [SET-35A, N-((1-benzyl-1H-1,2,3-triazol-4-yl)methyl)-2-bromo-4,5-dimethoxybenzenesulfonamide] the inhibition at 10 µM [4] was 4.4%.
For O=S(=O)(NCc1ccc(F)cc1)c1cc(O)c(O)cc1-c1ccc(C(F)(F)F)cc1 [SET-57, N-(4-fluorobenzyl)-4,5-dihydroxy-4'-(trifluoromethyl)-[1,1'-biphenyl]-2-sulfonamide], the “reduction in PK activity of HepG2 WT protein lysate” value (pyruvate kinase (PK) [3]) was 10.7%, the inhibition at 10 µM [4] was 35.2% and the “TAG content (in words)” value (HepG2 cells) was “reduced TAG content”. The “reduction in TAG/MTT ratio” value (HepG2 cells) was 15.6%.
With COc1cc2c(cc1OC)S(=O)(=O)N(Cc1ccc(F)cc1)c1cc(C(F)(F)F)ccc1-2 [SET-58, 6-(4-fluorobenzyl)-2,3-dimethoxy-8-(trifluoromethyl)-6H-dibenzo[c,e][1,2]thiazine 5,5-dioxide] the “reduction in PK activity of HepG2 WT protein lysate” value (pyruvate kinase (PK) [3]) was 33.8%, the inhibition at 10 µM [4] was 32.4% and the “TAG content (in words)” value (HepG2 cells) was “reduced TAG content”.
With O=S1(=O)c2cc(O)c(O)cc2-c2ccc(C(F)(F)F)cc2N1Cc1ccc(F)cc1 [SET-59, 6-(4-fluorobenzyl)-2,2-dihydroxy-8-(trifluoromethyl)-6H-dibenzo[c,e][1,2]thiazine 5,5-dioxide] the “reduction in PK activity of HepG2 WT protein lysate” value (pyruvate kinase (PK) [3]) was 13.3%, the “reduction in PK activity of HepG2 KO protein lysate” value [4] was 11.1% and the “TAG content (in words)” value (HepG2 cells) was “reduced TAG content”.
In the case of O=S(=O)(NCc1ccccc1)c1cc(O)c(O)cc1-c1ccc(C(F)(F)F)cc1 [SET-60, N-benzyl-4,5-dihydroxy-4'-(trifluoromethyl)-[1,1'-biphenyl]-2-sulfonamide], the inhibition at 10 µM [4] is reported as 17.2%, the “TAG content (in words)” value (HepG2 cells) is reported as “reduced TAG content” and the “reduction in TAG/MTT ratio” value (HepG2 cells) is reported as 16.3%.
In the case of COc1cc2c(cc1OC)S(=O)(=O)N(Cc1ccccc1)c1cc(C(F)(F)F)ccc1-2 [SET-61, 6-benzyl-2,2-dimethoxy-8-(trifluoromethyl)-6H-dibenzo[c,e][1,2]thiazine 5,5-dioxide], the “reduction in PK activity of HepG2 WT protein lysate” value (pyruvate kinase (PK) [3]) is reported as 11.7% and the “reduction in PK activity of HepG2 KO protein lysate” value [4] is reported as 8.8%.
For O=S(=O)(NCc1ccc(F)cc1)c1cc(O)c(O)cc1-c1ccc(O)cc1 [SET-66B, N-(4-fluorobenzyl)-4,4',5-trihydroxy-[1,1'-biphenyl]-2-sulfonamide], the “PK activity of HepG2 WT protein lysate (in words)” value (pyruvate kinase (PK) [3]) was “reduced the PK activity”, the “PK activity of HepG2 KO protein lysate (in words)” value [4] was “reduced the PK activity” and the “increase of the TAG/MTT ratio” value (HepG2 cells; 5 µM for 1 week) was 6.0%.
For O=S(=O)(NCc1ccc(F)cc1)c1cc(O)c(O)cc1-c1cccc(O)c1 [SET-68B, N-(4-fluorobenzyl)-3',4,5-trihydroxy-[1,1'-biphenyl]-2-sulfonamide], the “PK activity of HepG2 WT protein lysate (in words)” value (pyruvate kinase (PK) [3]) was “reduced the PK activity” and the “PK activity of HepG2 KO protein lysate (in words)” value [4] was “reduced the PK activity”.
O=S1(=O)c2cc(O)c(O)cc2-c2cc(O)ccc2N1Cc1ccc(F)cc1 [SET-68D, 6-(4-fluorobenzyl)-2,3,9-trihydroxy-6H-dibenzo[c,e][1,2]thiazine 5,5-dioxide] was tested, and the “PK activity of HepG2 WT protein lysate (in words)” value (pyruvate kinase (PK) [3]) was “highest inhibitory effect”.
In the case of O=S(=O)(NCc1ccccc1)c1cc(O)c(O)cc1-c1cccc(O)c1 [SET-69B, N-benzyl-3',4,5-trihydroxy-[1,1'-biphenyl]-2-sulfonamide], the “PK activity of HepG2 WT protein lysate (in words)” value (pyruvate kinase (PK) [3]) is reported as “reduced the PK activity” and the “PK activity of HepG2 KO protein lysate (in words)” value [4] is reported as “reduced the PK activity”.
O=S1(=O)c2cc(O)c(O)cc2-c2cc(O)ccc2N1Cc1ccccc1 [SET-69D, 6-benzyl-2,3,9-trihydroxy-6H-dibenzo[c,e][1,2]thiazine 5,5-dioxide] was tested, and the “PK activity of HepG2 WT protein lysate (in words)” value (pyruvate kinase (PK) [3]) was “reduced the PK activity” and the “PK activity of HepG2 KO protein lysate (in words)” value [4] was “reduced the PK activity”.
Cn1c2cc([S+](C)[O-])sc2c2cnn(Cc3cccc(N)c3)c(=O)c21 (stereo not shown) [TEPP46, reference compound] was tested, and the “effect on PK activity in HepG2 WT cells (in words)” value (pyruvate kinase (PK) [1]) was “increased activity”.
